Assays:
[1] = test system: 293T cells; assay: mRNA translation efficiency: eGFP mRNA capped with the analogs transfected into 293T cells, GFP fluorescence; assay type: cell-based; settings: summary of Table 6
Method: Test method: In-vitro transcription was initiated with the cap analogs of Examples 1-7, compounds 10-13, 16, 17, 25, 31 and 34, and Comparative Example 1 by using an eGFP coding sequence as a DNA template. The different mRNA products obtained were then transfected into 293T cells. The 293T cells were plated (onto a 24-well plate) at (0.5-1)×10^5 cells/well. During the transfection, in general, the cell density was preferably 60%-80%; […] was transfected into each well, and the Lipofectamine MessengerMAX Transfection Reagent (Invitrogen) was selected as the transfection reagent and used according to its usage instructions. The transfected cells were placed in an incubator at 37° C. with CO2. After transfection for 4-6 h, the medium was replaced with a fresh complete medium. After incubation in the incubator at 37° C. with CO2 for 24 h, the fluorescence intensity of GFPs in the cells was observed through a fluorescence microscope, and the fluorescence intensity ratios of Examples 1-7 and compounds 10-13, 16, 17, 25, 31 and 34 relative to Comparative Example 1 were calculated based on the fluorescence intensities.

[2] = target: T1, T7 RNA polymerase (Escherichia phage T7, UniProt P00573); assay: IVT capping rate of mRNA by LC-MS after RNase H cleavage; assay type: biochemical
Method: (§1) In-vitro synthesis of mRNA cap analogs modified with vinylphosphonic acid: Firstly, a plasmid was linearized with NotI and digested at […] overnight. A DNA template was extracted. mRNAs were synthesized by in-vitro transcription using the vinylphosphonic acid-modified mRNA cap analogs of Examples 1-7 and compounds 10-13, 16, 17, 25, 31 and 34, and the cap analog of Comparative Example 1 as cap structures, respectively.
(§2) Note: During the experiment, the volume of the materials required for the system was calculated firstly, and then sample loading was performed. Firstly, sterile enzyme-free water was added into the system, and then 10× buffer, NTPs, and the cap analog were sequentially added. The mixture was uniformly mixed and then gently centrifuged, followed by addition of the nuclease inhibitor, the inorganic pyrophosphatase, the T7 RNA polymerase, and the linearized DNA template. The mixture was well mixed, then gently centrifuged, and incubated at 37° C. After 2 h, DNase I (1 U) was added, and the mixture was incubated at 37° C. for another 30 min to remove the DNA template. RNA purification was then performed (usually using the magnetic bead purification method). The purified mRNA was dissolved in sterile enzyme-free water, and then quantitative detection was performed by using Nanodrop One.
Liquid chromatography-mass spectrometry (LC-MS) was used to detect the IVT capping rates of mRNAs with different starting cap analogs. Firstly, a labeled (usually biotin-labeled) DNA probe matched with the starting base of mRNA as the transcript product was required to be designed, and streptavidin-labeled magnetic beads were washed, and then incubated with the synthesized DNA probe, mRNA and 10× RNase H reaction buffer with slowly mixing at room temperature for 30 min. 20 L of RNase H (5 U/μL) was then added, and the mixture was incubated at 37° C. for 3 h, with uniform mixing every half hour. After the incubation was completed, the magnetic beads were cleaned, and then 100 μL of 75% methanol heated to 80° C. was added to the cleaned magnetic beads. The mixture was heated to 80° C. on a heating plate, held for 3 min, and then placed on a magnetic rack. The supernatant was pipetted and dried at room temperature for 45 min to 10 Lby using an evaporation centrifuge. The sample was then resuspended in 50 μL of 100 μM EDTA/1% MeOH for LC-MS analysis to determine the capping of RNA in the transcription reaction. Due to the significant difference in molecular weight between capped and uncapped bases, the capping rates of mRNA transcription initiated with different cap analogs can be determined by using the difference in molecular weight.

[3] = target: T1, T7 RNA polymerase; assay: mRNA in-vitro transcription yield with cap analog (T7 IVT, Nanodrop One quantification); assay type: biochemical
Method: as §1, §2

[4] = target: eukaryotic initiation factor (elF4E) (Homo sapiens, UniProt P06730); assay: Assay of binding ability to eukaryotic initiation factor (elF4E), Biacore T100
Method: Test method: Firstly, experimental samples, including the cap analog samples of Examples 1-7, compounds 10-13, 16, 17, 25, 31 and 34, and Comparative Example 1, were diluted with a running buffer (50 mM phosphate, 100 mM sodium chloride, and 0.01% vol/vol Tween 20, pH 6.0 or 7.4). The sample injection time was […], the sample injection flow rate was 20 L/min, and the dissociation time was […]. The residual samples were eluted with a regeneration buffer (10 mM HEPES, 150 mM NaCl, and 0.010% vol/vol Tween 20, pH 7.4) for 30 s at a flow rate of 30 μL/min. Finally, through analysis by Biacore T100 evaluation software (version 2.0.2), sensorgrams were generated and the binding constants were calculated.

T1 sequence (P00573 whole entry): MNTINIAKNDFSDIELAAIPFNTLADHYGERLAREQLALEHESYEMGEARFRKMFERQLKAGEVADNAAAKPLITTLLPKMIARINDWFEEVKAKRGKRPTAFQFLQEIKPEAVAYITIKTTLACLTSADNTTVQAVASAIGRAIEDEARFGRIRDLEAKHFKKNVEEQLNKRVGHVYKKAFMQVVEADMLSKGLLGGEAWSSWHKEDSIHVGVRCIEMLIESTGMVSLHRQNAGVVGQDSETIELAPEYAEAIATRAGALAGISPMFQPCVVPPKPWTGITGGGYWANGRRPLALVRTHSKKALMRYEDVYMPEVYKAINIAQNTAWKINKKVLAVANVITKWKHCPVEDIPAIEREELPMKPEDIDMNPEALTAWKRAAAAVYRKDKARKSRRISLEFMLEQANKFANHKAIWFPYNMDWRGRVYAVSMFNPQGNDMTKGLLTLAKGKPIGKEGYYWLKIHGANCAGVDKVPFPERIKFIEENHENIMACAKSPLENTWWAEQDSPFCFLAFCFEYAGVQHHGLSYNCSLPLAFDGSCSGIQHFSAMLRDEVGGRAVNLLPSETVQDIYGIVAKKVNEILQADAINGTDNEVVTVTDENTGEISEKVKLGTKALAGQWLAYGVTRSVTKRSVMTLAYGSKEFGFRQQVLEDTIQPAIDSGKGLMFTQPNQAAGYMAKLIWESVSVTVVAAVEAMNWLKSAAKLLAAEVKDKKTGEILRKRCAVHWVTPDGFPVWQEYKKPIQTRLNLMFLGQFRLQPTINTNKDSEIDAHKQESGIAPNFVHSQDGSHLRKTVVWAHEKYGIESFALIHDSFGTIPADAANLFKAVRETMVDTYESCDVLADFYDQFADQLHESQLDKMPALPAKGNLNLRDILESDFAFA
Chain of eukaryotic initiation factor (elF4E) (P06730 whole entry): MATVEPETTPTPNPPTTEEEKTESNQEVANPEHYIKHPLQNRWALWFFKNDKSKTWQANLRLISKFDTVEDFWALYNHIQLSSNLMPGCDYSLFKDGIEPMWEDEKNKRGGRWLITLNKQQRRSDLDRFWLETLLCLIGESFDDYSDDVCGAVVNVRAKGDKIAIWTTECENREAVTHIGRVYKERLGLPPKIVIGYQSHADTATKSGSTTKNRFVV

## COC1[C@@H](OP(=O)(O)/C=C/[C@H]2O[C@@H](n3cnc4c(=O)[nH]c(N)nc43)C(O)[C@H]2O)[C@@H](/C=C\P(=O)(O)OP(=O)(O)OP(=O)(O)/C=C\[C@H]2O[C@@H](n3c[n+](C)c4c(=O)[nH]c(N)nc43)[C@@H](O)C2O)O[C@H]1n1cnc2c(N)ncnc21 (stereo partly shown) [Example 7]
[1]
  intracellular translation effect of mRNA compared with Comparative Example 1 (in words): the lowest as compared to Comparative Example 1
[2]; LC-MS of mRNA transcribed with the cap analog
  Capping rate: 82.6%
[2]; text summary of Table 4
  capping efficiency compared with Comparative Example 1 (in words): significantly lower than those of Comparative Example 1
[3]; mRNA from 20 μL IVT system, 1 μl 100 mM cap analog, 1 μg template, 37° C. 2 h
  Yield: 85 µg
[3]; text summary of Table 4
  in-vitro transcription yield compared with Comparative Example 1 (in words): significantly lower than those of Comparative Example 1
[4]; Table 5
  binding constant to elF4E protein compared with Comparative Example 1 (in words): the lowest as compared to Comparative Example 1
[4]; cap analog to elF4E protein, running buffer pH 6.0 or 7.4, read-out: Binding constant (converted)
  Kd: 1160 nM
